# Test results: patent US8729082B2, “Substituted imidazoquinoxalines” (Bayer Intellectual Property GmbH, priority 2009, dated 2014)
# Target: T1, human kinase Mps-1 (Homo sapiens, UniProt P33981)
# T1 construct: N-terminally GST-tagged human full length recombinant Mps-1 kinase; purchased Invitrogen, Karslruhe, Germany PV4071
# T1 sequence (P33981 1-857): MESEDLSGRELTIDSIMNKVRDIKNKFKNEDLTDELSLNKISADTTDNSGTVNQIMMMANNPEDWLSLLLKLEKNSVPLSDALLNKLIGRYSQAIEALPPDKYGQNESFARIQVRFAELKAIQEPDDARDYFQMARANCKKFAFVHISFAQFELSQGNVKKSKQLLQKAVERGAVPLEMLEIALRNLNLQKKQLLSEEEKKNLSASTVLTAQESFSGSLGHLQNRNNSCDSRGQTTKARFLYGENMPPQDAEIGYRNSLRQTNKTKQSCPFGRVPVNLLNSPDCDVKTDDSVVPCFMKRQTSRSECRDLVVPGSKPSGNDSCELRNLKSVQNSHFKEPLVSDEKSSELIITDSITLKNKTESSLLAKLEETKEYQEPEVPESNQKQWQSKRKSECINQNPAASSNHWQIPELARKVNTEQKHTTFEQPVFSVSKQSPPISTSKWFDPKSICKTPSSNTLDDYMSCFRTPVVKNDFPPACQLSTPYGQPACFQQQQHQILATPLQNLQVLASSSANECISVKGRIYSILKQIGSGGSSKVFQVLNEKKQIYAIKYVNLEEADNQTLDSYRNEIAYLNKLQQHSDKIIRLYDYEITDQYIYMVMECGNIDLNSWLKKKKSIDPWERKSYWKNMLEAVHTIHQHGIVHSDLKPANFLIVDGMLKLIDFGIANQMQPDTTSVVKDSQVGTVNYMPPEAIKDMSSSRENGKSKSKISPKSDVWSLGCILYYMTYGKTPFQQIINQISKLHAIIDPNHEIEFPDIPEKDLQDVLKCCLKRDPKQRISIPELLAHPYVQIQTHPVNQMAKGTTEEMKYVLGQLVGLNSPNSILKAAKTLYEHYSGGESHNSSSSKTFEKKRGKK
# Assay: Mps-1 kinase assay (HTRF)
# Assay type: biochemical
# Details: lowATP; mean; read-out: Mps1 lowATP mean IC50
# Procedure: The human kinase Mps-1 phosphorylates a biotinylated substrate peptide. Detection of the phosphorylated product is achieved by homogenous time-resolved fluorescence resonance energy transfer (HTRF) from Europium-labelled anti-phospho-Serine/Threonine antibody as donor to streptavidin labelled with cross-linked allophycocyanin (SA-XLent) as acceptor. Compounds are tested for their inhibition of the kinase activity.
# N-terminally GST-tagged human full length recombinant Mps-1 kinase (purchased from Invitrogen, Karslruhe, Germany, cat. no PV4071) was used. As substrate for the kinase reaction a biotinylated peptide of the amino-acid sequence PWDPDDADITEILG (C-terminus in amide form, purchased from Biosynthan GmbH, Berlin) was used.
# For the assay 50 nl of a 100-fold concentrated solution of the test compound in DMSO was pipetted into a black low volume 384 well microtiter plate (Greiner Bio-One, Frickenhausen, Germany), 2 μl of a solution of Mps-1 in assay buffer [0.1 mM sodium-ortho-vanadate, 10 mM MgCl2, 2 mM DTT, 25 mM Hepes pH 7.7, 0.05% BSA, 0.001% Pluronic F-127] were added and the mixture was incubated for 15 min at 22° C. to allow pre-binding of the test compounds to Mps-1 before the start of the kinase reaction. Then the kinase reaction was started by the addition of 3 μl of a solution of 16.7 μM ATP and 1.67 μM peptide in assay buffer and the resulting mixture was incubated for a reaction time of 60 min at 22° C. The concentration of Mps-1 in the assay was adjusted to the activity of the enzyme lot and was chosen appropriate to have the assay in the linear range, typical enzyme concentrations were in the range of about 1 nM (final conc. in the 5 μl assay volume). The reaction was stopped by the addition of 3 μl of a solution of HTRF detection reagents (100 mM Hepes pH 7.4, 0.1% BSA, 40 mM EDTA, 140 nM Streptavidin-XLent [#61GSTXLB, Fa. Cis Biointernational, Marcoule, France], 1.5 nM anti-phospho(Ser/Thr)-Europium-antibody [#AD0180, PerkinElmer LAS, Rodgau-Jügesheim, Germany].
# The resulting mixture was incubated 1 h at 22° C. to allow the binding of the phosphorylated peptide to the anti-phospho(Ser/Thr)-Europium-antibody. Subsequently the amount of phosphorylated substrate was evaluated by measurement of the resonance energy transfer from the Europium-labelled anti-phospho(Ser/Thr) antibody to the Streptavidin-XLent. Therefore, the fluorescence emissions at 620 nm and 665 nm after excitation at 350 nm was measured in a HTRF reader, e.g. a Rubystar (BMG Labtechnologies, Offenburg, Germany) or a Viewlux (PerkinElmer LAS, Rodgau-Jügesheim, Germany). The ratio of the emissions at 665 nm and at […] was taken as the measure for the amount of phosphorylated substrate. The data were normalised (enzyme reaction without inhibitor=0% inhibition, all other assay components but no enzyme=100% inhibition).
row,Compound,IC50 [µM]
1,"O=C(NC1CC1)c1ccc(-c2cnc3c(NC[C@@H](O)CO)nc4ccc(F)cc4n23)cc1Cl (stereo in doubt) [Example 2-87, 2-chloro-N-cyclopropyl-4-{4-[(2,3-dihydroxypropyl)amino]-8-fluoroimidazo[1,2-a]quinoxalin-1-yl}benzamide]",12.2
2,"Cc1cc2nc(NC[C@@H](O)CO)c3ncc(-c4ccc(C(=O)NC5CC5)cc4)n3c2cc1C (stereo in doubt) [Example 2-158, N-cyclopropyl-4-{4-[(2,3-dihydroxypropyl)amino]-7,8-dimethylimidazo[1,2-a]quinoxalin-1-yl}benzamide]",0.0124
3,"CC(C)CNc1nc2ccccc2n2c(-c3ccc(NC(=O)Nc4ccc(CN5CCN(C)CC5)c(C(F)(F)F)c4)cc3)cnc12 [Example 1-1, 1-[4-(4-isobutylamino-imidazo[1,2-a]quinoxalin-1-yl)-phenyl]-3-[4-(4-methyl-piperazin-1-ylmethyl)-3-trifluoromethyl-phenyl]-urea]",0.0559
4,"CC(C)CNc1nc2ccccc2n2c(-c3ccc(C(=O)NC4CC4)cc3)cnc12 [Example 1-2, N-cyclopropyl-4-(4-isobutylamino-imidazo[1,2-a]quinoxalin-1-yl)-benzamide]",0.0124
5,"CCNC(=O)Nc1ccc(-c2cnc3c(NCC(C)C)nc4ccccc4n23)cc1 [Example 1-3, 1-ethyl-3-[4-(4-isobutylamino-imidazo[1,2-a]quinoxalin-1-yl)-phenyl]-urea]",20
6,"CC(C)CNc1nc2ccccc2n2c(-c3ccc4c(c3)OCCO4)cnc12 [Example 1-4, 1-(2,3-dihydro-1,4-benzodioxin-6-yl)-N-(2-methylpropyl)imidazo[1,2-a]quinoxalin-4-amine]",2.86
7,"CC(C)CNc1nc2ccccc2n2c(-c3ccc(C(=O)O)cc3)cnc12 [Example 1-5, 4-{4-[(2-methylpropyl)amino]imidazo[1,2-a]quinoxalin-1-yl}benzoic acid]",11.9
8,"CC(C)CNc1nc2ccccc2n2c(-c3ccccc3)cnc12 [Example 1-6, N-(2-methylpropyl)-1-phenylimidazo[1,2-a]quinoxalin-4-amine]",8.18
9,"Cc1ccc(-c2cnc3c(NCC(C)C)nc4ccccc4n23)cc1 [Example 1-7, 1-(4-methylphenyl)-N-(2-methylpropyl)imidazo[1,2-a]quinoxalin-4-amine]",5.36
10,"COc1cccc(-c2cnc3c(NCC(C)C)nc4ccccc4n23)c1F [Example 1-8, 1-(2-fluoro-3-methoxyphenyl)-N-(2-methylpropyl)imidazo[1,2-a]quinoxalin-4-amine]",17.3
11,"CC(C)CNc1nc2ccccc2n2c(-c3ccc(C(=O)N(C)C)cc3)cnc12 [Example 1-9, N,N-dimethyl-4-{4-[(2-methylpropyl)amino]imidazo[1,2-a]quinoxalin-1-yl}benzamide]",15.2
12,"CSc1ccc(-c2cnc3c(NCC(C)C)nc4ccccc4n23)cc1 [Example 1-10, N-(2-methylpropyl)-1-[4-(methylsulfanyl)phenyl]imidazo[1,2-a]quinoxalin-4-amine]",3.34
13,"Cc1ccccc1-c1cnc2c(NCC(C)C)nc3ccccc3n12 [Example 1-11, 1-(2-methylphenyl)-N-(2-methylpropyl)imidazo[1,2-a]quinoxalin-4-amine]",13.9
14,"COc1ncc(-c2cnc3c(NCC(C)C)nc4ccccc4n23)cn1 [Example 1-12, 1-(2-methoxypyrimidin-5-yl)-N-(2-methylpropyl)imidazo[1,2-a]quinoxalin-4-amine]",5.54
15,"CC(C)CNc1nc2ccccc2n2c(-c3ccc4cc[nH]c4c3)cnc12 [Example 1-13, 1-(1H-indol-6-yl)-N-(2-methylpropyl)imidazo[1,2-a]quinoxalin-4-amine]",2.01
16,"CC(C)CNc1nc2ccccc2n2c(-c3cccnc3F)cnc12 [Example 1-14, 1-(2-fluoropyridin-3-yl)-N-(2-methylpropyl)imidazo[1,2-a]quinoxalin-4-amine]",9.73
17,"CC(C)CNc1nc2ccccc2n2c(-c3ccc(C(N)=O)cc3)cnc12 [Example 1-15, 4-{4-[(2-methylpropyl)amino]imidazo[1,2-a]quinoxalin-1-yl}benzamide]",0.399
18,"CC(C)CNc1nc2ccccc2n2c(-c3ccc(C(=O)N4CCCC4)cc3)cnc12 [Example 1-16, (4-{4-[(2-methylpropyl)amino]imidazo[1,2-a]quinoxalin-1-yl}phenyl)(pyrrolidin-1-yl)methanone]",3.67
19,"CNC(=O)c1ccc(-c2cnc3c(NCC(C)C)nc4ccccc4n23)cc1 [Example 1-17, N-methyl-4-{4-[(2-methylpropyl)amino]imidazo[1,2-a]quinoxalin-1-yl}benzamide]",0.192
20,"CC(C)CNc1nc2ccccc2n2c(-c3cnn(C)c3)cnc12 [Example 1-18, N-(2-methylpropyl)-1-(1-methyl-1H-pyrazol-4-yl)imidazo[1,2-a]quinoxalin-4-amine]",12.1
21,"CC(C)CNc1nc2ccccc2n2c(-c3cccc4cnccc34)cnc12 [Example 1-19, 1-(isoquinolin-5-yl)-N-(2-methylpropyl)imidazo[1,2-a]quinoxalin-4-amine]",11.8
22,"CNC(=O)c1cccc(-c2cnc3c(NCC(C)C)nc4ccccc4n23)c1 [Example 1-20, N-methyl-3-{4-[(2-methylpropyl)amino]imidazo[1,2-a]quinoxalin-1-yl}benzamide]",17.4
23,"CC(C)CNc1nc2ccccc2n2c(-c3cccs3)cnc12 [Example 1-21, N-(2-methylpropyl)-1-(thiophen-2-yl)imidazo[1,2-a]quinoxalin-4-amine]",3.31
24,"CC(C)CNc1nc2ccccc2n2c(-c3ccsc3)cnc12 [Example 1-22, N-(2-methylpropyl)-1-(thiophen-3-yl)imidazo[1,2-a]quinoxalin-4-amine]",5.14
25,"CC(C)CNc1nc2ccccc2n2c(-c3ccccc3C(F)(F)F)cnc12 [Example 1-23, N-(2-methylpropyl)-1-[2-(trifluoromethyl)phenyl]imidazo[1,2-a]quinoxalin-4-amine]",7.71
26,"CC(=O)c1ccc(-c2cnc3c(NCC(C)C)nc4ccccc4n23)cc1 [Example 1-24, 1-(4-{4-[(2-methylpropyl)amino]imidazo[1,2-a]quinoxalin-1-yl}phenyl)ethanone]",2.6
27,"COc1ccc(-c2cnc3c(NCC(C)C)nc4ccccc4n23)cc1OC [Example 1-25, 1-(3,4-dimethoxyphenyl)-N-(2-methylpropyl)imidazo[1,2-a]quinoxalin-4-amine]",13.6
28,"CC(C)CNc1nc2ccccc2n2c(-c3ccccc3F)cnc12 [Example 1-26, 1-(2-fluorophenyl)-N-(2-methylpropyl)imidazo[1,2-a]quinoxalin-4-amine]",9.14
29,"CC(C)CNc1nc2ccccc2n2c(-c3ccc(CO)cc3)cnc12 [Example 1-27, (4-{4-[(2-methylpropyl)amino]imidazo[1,2-a]quinoxalin-1-yl}phenyl)methanol]",1.68
